Data published in patent US9637473B2, “Acrylamide derivatives as antimalarial agents” (priority 2013, dated 2017).

These compounds were tested on P. Falciparum NF54 (assay: Plasmodium falciparum in vitro assay ([3H]-hypoxanthine incorporation)). Conditions: P. Falciparum NF54, erythrocytic stages in human red blood cells, 50% human serum.
Type: cell-based
Method in brief: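 This in vitro antimalarial assay used P. falciparum erythrocytic stages cultured in human erythrocytes and measured [3H]-hypoxanthine incorporation. Radioactivity on the dried filters, placed in plastic foil with 10 mL scintillation fluid, was counted in a Betaplate liquid scintillation counter. Sigmoidal inhibition curves built in Microsoft Excel gave the IC50.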

SMILES	IC50 [µM]
CN(c1ccncc1)c1ccc(CN(C(=O)/C=C/c2ccc(C(F)(F)F)cc2)C2C[C@@H]3CN(C4CCCC4)C[C@@H]3C2)cc1 (single isomer, unassigned) [Example 66]	0.014
CC(C)CCN1C[C@H]2CC(N(Cc3ccc(N(C)c4ccncc4)cc3)C(=O)/C=C/c3ccc(C(F)(F)F)cc3)C[C@H]2C1 (single isomer, unassigned) [Example 68]	0.017

Same assay, conditions: Plasmodium falciparum, Erythrocyte, P. Falciparum NF54, erythrocytic stages in human red blood cells, 50% human serum

SMILES	IC50 [µM]
CN(c1ccncc1)c1ccc(CN(C(=O)/C=C/c2ccc(C(C)(C)C)cc2)C2CCN(Cc3ccccc3)CC2)cc1 [Example 144, (E)-N-(1-Benzyl-piperidin-4-yl)-3-(4-tert-butyl-phenyl)-N-[4-(methyl-pyridin-4-yl-amino)-benzyl]-acrylamide]	0.174
CN(c1ccncc1)c1ccc(CN(C(=O)/C=C/c2ccc(C(F)(F)F)cc2)C2CCN(CC3CC3)CC2)cc1 [Example 9, (E)-N-(1-Cyclopropylmethyl-piperidin-4-yl)-N-[4-(methyl-pyridin-4-yl-amino)-benzyl]-3-(4-trifluoromethyl-phenyl)-acrylamide]	0.027
CCCN1CCC(N(Cc2ccc(Nc3ccnc(C)c3)cc2)C(=O)/C=C/c2ccc(C(F)(F)F)cc2)CC1 [Example 33, (E)-N-[4-(2-Methyl-pyridin-4-ylamino)-benzyl]-N-(1-propyl-piperidin-4-yl)-3-(4-trifluoromethyl-phenyl)-acrylamide]	0.042
CN(c1ccncc1)c1ccc(CN(C(=O)/C=C/c2ccc(F)cc2)C2CCN(Cc3ccccc3)CC2)cc1 [Example 155, (E)-N-(1-Benzyl-piperidin-4-yl)-3-(4-fluoro-phenyl)-N-[4-(methyl-pyridin-4-yl-amino)-benzyl]-acrylamide]	0.101
Cc1cc(Nc2ccc(CN(C(=O)/C=C/c3ccc(C(F)(F)F)cc3)C3CCN(C)CC3)cc2)ccn1 [Example 174, (E)-N-(1-Methyl-piperidin-4-yl)-N-[4-(2-methyl-pyridin-4-ylamino)-benzyl]-3-(4-trifluoromethyl-phenyl)-acrylamide]	0.067
CN1CCC(N2CCCC(N(Cc3ccc(N(C)c4ccncc4)cc3)C(=O)/C=C/c3ccc(C(F)(F)F)cc3)CC2)CC1 (racemic) [Example 57, (±)-(E)-N-(4-(methyl(pyridin-4-yl)amino)benzyl)-N-(1-(1-methylpiperidin-4-yl)azepan-4-yl)-3-(4-(trifluoromethyl)phenyl)acrylamide]	0.018
CN(c1ccncc1)c1ccc(CN(C(=O)/C=C/c2ccc(C(F)(F)F)cc2)C2CCN(Cc3ccccn3)CC2)cc1 [Example 22, (E)-N-[4-(Methyl-pyridin-4-yl-amino)-benzyl]-N-(1-pyridin-2-ylmethyl-piperidin-4-yl)-3-(4-trifluoromethyl-phenyl)-acrylamide]	0.176
CC(C)CCN1CCCC(N(Cc2ccc(N(C)c3ccncc3)cc2)C(=O)/C=C/c2ccc(C(F)(F)F)cc2)CC1 (racemic) [Example 63, (±)-(E)-N-(1-isopentylazepan-4-yl)-N-(4-(methyl(pyridin-4-yl)amino)benzyl)-3-(4-(trifluoromethyl)phenyl)acrylamide]	0.085
Cc1cc(Nc2ccc(CN(C(=O)/C=C/c3ccc(C(F)(F)F)cc3)C3CCN(Cc4cncnc4)CC3)cc2)ccn1 [Example 49, (E)-N-[4-(2-Methyl-pyridin-4-ylamino)-benzyl]-N-(1-pyrimidin-5-ylmethyl-piperidin-4-yl)-3-(4-trifluoromethyl-phenyl)-acrylamide]	0.28
Cc1cc(Nc2ccc(CN(C(=O)/C=C/c3ccc(Cl)cc3)C3CCN(C4CCCC4)CC3)cn2)ccn1 [Example 169, (E)-3-(4-Chloro-phenyl)-N-(1-cyclopentyl-piperidin-4-yl)-N-[6-(2-methyl-pyridin-4-ylamino)-pyridin-3-ylmethyl]-acrylamide]	0.134
Cc1cc(Nc2ccc(CN(C(=O)/C=C/c3ccc(C(F)(F)F)cc3)C3CCN(CC4CC4)CC3)cc2)ccn1 [Example 31, (E)-N-(1-Cyclopropylmethyl-piperidin-4-yl)-N-[4-(2-methyl-pyridin-4-ylamino)-benzyl]-3-(4-trifluoromethyl-phenyl)-acrylamide]	0.039
CC(C)CCN1CCC2(CCC(N(Cc3ccc(N(C)c4ccncc4)cc3)C(=O)/C=C/c3ccc(C(F)(F)F)cc3)CC2)CC1 [Example 69, (E)-N-(3-isopentyl-3-azaspiro[5.5]undecan-9-yl)-N-(4-(methyl(pyridin-4-yl)amino)benzyl)-3-(4-(trifluoromethyl)phenyl)acrylamide]	0.041
Cc1cc(Nc2ccc(CN(C(=O)/C=C/c3ccc(Cl)cc3)C3CCN(C4CC4)CC3)cc2)ccn1 [Example 210, (E)-3-(4-Chloro-phenyl)-N-(1-cyclopropyl-piperidin-4-yl)-N-[4-(2-methyl-pyridin-4-ylamino)-benzyl]-acrylamide]	0.174
CC(C)CCN1CCC(CN(Cc2ccc(N(C)c3ccncc3)cc2)C(=O)/C=C/c2ccc(C(F)(F)F)cc2)CC1 [Example 189, (E)-N-[1-(3-Methyl-butyl)-piperidin-4-ylmethyl]-N-[4-(methyl-pyridin-4-yl-amino)-benzyl]-3-(4-trifluoromethyl-phenyl)-acrylamide]	0.034
CN(c1ccncc1)c1ccc(CN(C(=O)/C=C/c2ccc(OC(F)F)cc2)C2CCN(Cc3ccccc3)CC2)cc1 [Example 145, (E)-N-(1-Benzyl-piperidin-4-yl)-3-(4-difluoromethoxy-phenyl)-N-[4-(methyl-pyridin-4-yl-amino)-benzyl]-acrylamide]	0.069
O=C(/C=C/c1ccc(C(F)(F)F)cc1)N(Cc1ccc(Nc2ccccc2)cc1)C1CCN(C2CCCC2)CC1 [Example 93, (E)-N-(1-Cyclopentyl-piperidin-4-yl)-N-(4-phenylamino-benzyl)-3-(4-trifluoromethyl-phenyl)-acrylamide]	0.418
CC(c1ccccc1)N1CCC(N(Cc2ccc(N(C)c3ccncc3)cc2)C(=O)/C=C/c2ccc(C(F)(F)F)cc2)CC1 (racemic) [Example 30, (±)-(E)-N-[4-(Methyl-pyridin-4-yl-amino)-benzyl]-N-[1-(1-phenyl-ethyl)-piperidin-4-yl]-3-(4-trifluoromethyl-phenyl)-acrylamide]	0.175
Cc1cc(Nc2ccc(CN(C(=O)/C=C/c3ccc(C(F)(F)F)cc3)C3CCN(Cc4coc(C)n4)CC3)cc2)ccn1 [Example 36, (E)-N-[1-(2-Methyl-oxazol-4-ylmethyl)-piperidin-4-yl]-N-[4-(2-methyl-pyridin-4-ylamino)-benzyl]-3-(4-trifluoromethyl-phenyl)-acrylamide]	0.143
CN(c1ccncc1)c1ccc(CN(C(=O)/C=C/c2ccc(OC(F)(F)F)cc2)C2CCN(Cc3ccccc3)CC2)cc1 [Example 146, (E)-N-(1-Benzyl-piperidin-4-yl)-N-[4-(methyl-pyridin-4-yl-amino)-benzyl]-3-(4-trifluoromethoxy-phenyl)-acrylamide]	0.048
O=C(/C=C/c1ccc(C(F)(F)F)cc1)N(Cc1ccc(Nc2ccnc3cc(C(F)(F)F)ccc23)cc1)C1CCN(C2CCCC2)CC1 [Example 90, (E)-N-(1-Cyclopentyl-piperidin-4-yl)-3-(4-trifluoromethyl-phenyl)-N-[4-(7-trifluoromethyl-quinolin-4-ylamino)-benzyl]-acrylamide]	0.138
Cc1cc(Nc2ccc(CN(C(=O)/C=C/c3ccc(C(F)(F)F)cc3)C3CCN(Cc4cc(C)nn4C)CC3)cc2)ccn1 [Example 43, (E)-N-[1-(2,5-Dimethyl-2H-pyrazol-3-ylmethyl)-piperidin-4-yl]-N-[4-(2-methyl-pyridin-4-ylamino)-benzyl]-3-(4-trifluoromethyl-phenyl)-acrylamide]	0.084
CN1CCC(N2CCC(N(Cc3ccc(Nc4ccncc4)cc3)C(=O)/C=C/c3ccc(C(F)(F)F)cc3)CC2)CC1 [Example 115, (E)-N-(1′-Methyl-[1,4′]bipiperidinyl-4-yl)-N-[4-(pyridin-4-ylamino)-benzyl]-3-(4-trifluoromethyl-phenyl)-acrylamide]	0.082
Cc1cc(Nc2ccc(CN(C(=O)/C=C/c3ccc(C(F)(F)F)cc3)C3CCN(Cc4nccs4)CC3)cc2)ccn1 [Example 40, (E)-N-[4-(2-Methyl-pyridin-4-ylamino)-benzyl]-N-(1-thiazol-2-ylmethyl-piperidin-4-yl)-3-(4-trifluoromethyl-phenyl)-acrylamide]	0.341
O=C(/C=C/c1ccc(C(F)(F)F)cc1)N(Cc1ccc(-c2ccccn2)cc1)C1CCN(C2CCCC2)CC1 [Example 198, (E)-N-(1-Cyclopentyl-piperidin-4-yl)-N-(4-pyridin-2-yl-benzyl)-3-(4-trifluoromethyl-phenyl)-acrylamide]	0.355
CN(c1ccncc1)c1ccc(CN(C(=O)/C=C/c2ccc(C(F)(F)F)cc2)[C@H]2CCN(C3CCCC3)C2)cc1 [Example 114, (E)-N-((S)-1-Cyclopentyl-pyrrolidin-3-yl)-N-[4-(methyl-pyridin-4-yl-amino)-benzyl]-3-(4-trifluoromethyl-phenyl)-acrylamide]	0.086
Cc1cc(Nc2ccc(CN(C(=O)/C=C/c3ccc(C(F)(F)F)cc3)C3CCN(C4CCCC4)C3)cc2)ccn1 (racemic) [Example 101, (±)-(E)-N-(1-Cyclopentyl-pyrrolidin-3-yl)-N-[4-(2-methyl-pyridin-4-ylamino)-benzyl]-3-(4-trifluoromethyl-phenyl)-acrylamide]	0.043
CN1CCC(N2CCC3(CCC(N(Cc4ccc(N(C)c5ccncc5)cc4)C(=O)/C=C/c4ccc(C(F)(F)F)cc4)CC3)CC2)CC1 [Example 65, (E)-N-(4-(methyl(pyridin-4-yl)amino)benzyl)-N-(3-(1-methylpiperidin-4-yl)-3-azaspiro[5.5]undecan-9-yl)-3-(4-(trifluoromethyl)phenyl)acrylamide]	0.021
CN1CCC(N2CCC(N(Cc3ccc(N(C)c4ccncc4)nc3)C(=O)/C=C/c3ccc(C(F)(F)F)cc3)CC2)CC1 [Example 112, (E)-N-(1′-Methyl-[1,4′]bipiperidinyl-4-yl)-N-[6-(methyl-pyridin-4-yl-amino)-pyridin-3-ylmethyl]-3-(4-trifluoromethyl-phenyl)-acrylamide]	0.039
